Paper PMC3398407 (The Journal of Neuroscience, 2012)
Several values for one entry are separate records, joined by “and”; a condition that tells them apart may be missing. Identical values can stand only once. Like-named read-outs stand apart in the source and are kept apart here.

Tests used:
[1] = tested on: mPFC layer V pyramidal neurons; assay: Whole-cell voltage clamp recordings of sEPSCs in mPFC layer V pyramidal neurons; parameters: species or system mice; settings: mouse mPFC slices; for effect on sEPSC frequency / interevent interval (IEI): 100 μM
[2] = target: T1, human M1 mAChR (Homo sapiens, UniProt P11229); assay: Calcium mobilization in TET-inducible hM1 TREx CHO cells
T1 sequence (P11229 1-460): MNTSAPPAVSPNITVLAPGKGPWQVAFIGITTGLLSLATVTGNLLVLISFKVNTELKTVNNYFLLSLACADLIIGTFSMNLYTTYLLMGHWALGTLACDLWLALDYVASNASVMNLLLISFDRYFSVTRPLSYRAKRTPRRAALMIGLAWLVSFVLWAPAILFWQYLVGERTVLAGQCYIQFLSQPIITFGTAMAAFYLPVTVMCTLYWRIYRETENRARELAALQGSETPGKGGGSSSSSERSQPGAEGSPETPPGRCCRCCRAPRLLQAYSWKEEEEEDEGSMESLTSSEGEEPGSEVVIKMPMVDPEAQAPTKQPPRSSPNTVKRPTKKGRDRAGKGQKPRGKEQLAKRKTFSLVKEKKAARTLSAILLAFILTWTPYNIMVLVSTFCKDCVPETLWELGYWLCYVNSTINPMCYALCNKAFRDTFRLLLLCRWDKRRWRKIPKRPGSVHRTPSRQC

[3] = tested on: Sprague-Dawley rats; assay: Acquisition of contextual fear conditioning; type: in vivo, rat; settings: vs vehicle
[4] = target: T2, D4 dopamine receptors (Homo sapiens, UniProt P21917); assay: GPCRProfiler calcium assay, D4; type: cell-based; settings: 10 μM compound
T2 sequence (P21917 1-419): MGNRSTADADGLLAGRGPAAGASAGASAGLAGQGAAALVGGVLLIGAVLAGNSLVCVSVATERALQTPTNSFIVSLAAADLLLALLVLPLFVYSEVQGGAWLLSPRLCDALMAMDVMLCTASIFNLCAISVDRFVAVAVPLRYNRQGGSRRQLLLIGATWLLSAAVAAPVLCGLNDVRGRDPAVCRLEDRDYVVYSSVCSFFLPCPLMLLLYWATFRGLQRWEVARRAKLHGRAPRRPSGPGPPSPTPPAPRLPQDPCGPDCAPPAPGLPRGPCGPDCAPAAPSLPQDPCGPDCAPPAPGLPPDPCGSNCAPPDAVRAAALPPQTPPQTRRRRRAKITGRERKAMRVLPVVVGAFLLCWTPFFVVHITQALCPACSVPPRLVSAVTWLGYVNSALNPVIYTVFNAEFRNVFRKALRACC

[5] = tested on: 168 G protein coupled receptors (GPCRs); assay: GPCRProfiler calcium assay, agonist mode, other GPCRs; type: cell-based; settings: 10 μM compound
[6] = target: T3, hM1 receptors (Homo sapiens, UniProt P11229); assay: β-arrestin recruitment, PathHunter Express hM1 CHO cells; type: cell-based
T3 sequence (P11229 1-460): T1 sequence (P11229 1-460)

[7] = target: β3-adrenergic receptors (Homo sapiens, UniProt P13945); assay: GPCRProfiler calcium assay, β3; type: cell-based; settings: 10 μM compound
[8] = tested on: rats; assay: Amphetamine-induced hyperlocomotion; type: in vivo, rat; settings: 3–56.6 mg/kg i.p. 30 minutes prior to amphetamine
[9] = target: T4, human M1 receptors (Homo sapiens, UniProt P11229); assay: Calcium mobilization in hM1 CHO cells; settings: for Ca release % CCh max: Emax normalized to maximum CCh response; for EC50: read-out: Ca release EC50
T4 sequence (P11229 1-460): T1 sequence (P11229 1-460)

[10] = tested on: Sprague-Dawley rats; assay: Morris water maze; type: in vivo, rat
[11] = tested on: Schaffer collateral-CA1 synapse; assay: Muscarinic long-term depression; settings: 10 minutes, rat hippocampal slices
[12] = target: T4, human M1 receptors; assay: ERK1/2 phosphorylation; type: cell-based; settings: hM1 CHO cells, 5 min agonist; for EC50: read-out: ERK EC50
[13] = tested on: Schaffer collateral-CA1 synapse in rat hippocampus; settings: 500 nM bath applied 10 minutes prior to threshold TBS; rat hippocampal slices
[14] = target: T1, human M1 mAChR; assay: Confocal imaging of β-arrestin2-YFP recruitment in hM1 TREx CHO cells; type: cell-based; settings: agonist 100 μM
[15] = target: T1, human M1 mAChR; assay: ERK1/2 phosphorylation in TET-inducible hM1 TREx CHO cells; type: cell-based
[16] = target: T5, M1 muscarinic receptors (Homo sapiens, UniProt P11229); assay: GPCRProfiler calcium assay, agonist mode, M1; type: cell-based; settings: 10 μM compound
T5 sequence (P11229 1-460): T1 sequence (P11229 1-460)

[17] = tested on: striatal medium spiny neurons (MSNs); parameters: species or system rats
[18] = tested on: D3 receptors; settings: ref Lebois et al., 2011; cited from earlier work
[19] = read-out: Ca EC50, TET 10 ng/mL
[20] = read-out: Ca EC50, TET 25 ng/mL
[21] = read-out: Ca EC50, TET 50 ng/mL
[22] = i.p., treated groups vs controls
[23] = read-out: ERK EC50, TET 50 ng/mL
[24] = read-out: ERK EC50, TET 1 μg/mL

Sequence of β3-adrenergic receptors (P13945 whole entry): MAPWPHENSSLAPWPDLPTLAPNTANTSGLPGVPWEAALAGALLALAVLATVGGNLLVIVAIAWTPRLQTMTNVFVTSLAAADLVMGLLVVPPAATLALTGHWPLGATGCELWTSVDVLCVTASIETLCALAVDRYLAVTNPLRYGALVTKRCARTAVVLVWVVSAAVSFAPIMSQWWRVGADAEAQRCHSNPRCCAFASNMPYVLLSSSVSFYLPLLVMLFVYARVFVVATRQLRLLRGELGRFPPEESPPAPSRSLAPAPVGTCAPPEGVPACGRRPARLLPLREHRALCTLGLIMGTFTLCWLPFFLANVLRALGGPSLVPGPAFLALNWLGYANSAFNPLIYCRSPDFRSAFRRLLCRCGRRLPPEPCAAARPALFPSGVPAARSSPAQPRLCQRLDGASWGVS

Row | SMILES | effect on sEPSC frequency / interevent interval (IEI) [1] | Ca % CCh max ([2]; TET 0 ng/mL) [% CCh max] | Ca % CCh max ([2]; TET 10 ng/mL) [% CCh max] | Ca % CCh max ([2]; TET 25 ng/mL) [% CCh max] | Ca % CCh max ([2]; TET 50 ng/mL) [% CCh max] | Ca % CCh max ([2]; TET 1 μg/mL) [% CCh max] | EC50 [2, 19] [µM] | EC50 [2, 20] [µM] | EC50 [2, 21] [µM] | EC50 ([2]; read-out: Ca EC50, TET 1 μg/mL) [µM] | effect on β-arrestin recruitment [6] | reversal of amphetamine-induced hyperlocomotion [8] | Ca release % CCh max [9] | EC50 [9] [µM] | induction of LTD of fEPSP slope ([11]; 30 μM) | ERK % CCh max [12] [% CCh max] | EC50 [12] [µM] | potentiation of threshold TBS LTP (fEPSP slope) [13] | β-arrestin2-YFP recruitment (confocal) ([14]; TET 50 ng/mL overnight) | β-arrestin2-YFP recruitment (confocal) ([14]; TET 1 μg/mL overnight) | also measured
1 | CCOC(=O)N1CCC(NCCNC(=O)c2ccccc2C)CC1.Cl [VU0357017] | no significant effect on IEI | 8.24 | 7.21 | 24.5 | 60.4 | 75.3 | 16 | 16 | 1.6 | 0.69 | little or no effect on β-arrestin recruitment | fails to reverse hyperlocomotion | 41.7 ± 2.37 % CCh max and 41.7 % CCh max | 1.6 | did not induce a significant LTD response | 37.9 | 37 | significant potentiation of fEPSP slope | no effect on β-arrestin recruitment | did not induce β-arrestin2 recruitment | acquisition of contextual fear (duration of freezing) ([3]; 0.1, 0.3, 0.56, 1, and 3 mg/kg i.p. 30 min before conditioning): robust improvements in acquisition of contextual fear; agonist Ca response at D4 [4]: very small responses; agonist activity at other receptor subtypes [5]: little activity; agonist Ca response at β3 [7]: very small responses; overnight memory retention [10, 22]: did not differ from controls; platform crossing on the probe trial [10, 22]: did not differ from controls; swim path distance from days 4 to 5 [10, 22]: did not differ from controls; ERK % CCh max ([15]; TET 0 ng/mL): 27.4 % CCh max; ERK % CCh max ([15]; TET 25 ng/mL): 50.3 % CCh max; ERK % CCh max ([15]; TET 50 ng/mL): 45.9 % CCh max; ERK % CCh max ([15]; TET 1 μg/mL): 30.3 % CCh max; EC50 [15, 23]: 35.9 µM; EC50 [15, 24]: 3.17 µM; agonist Ca response at M1 [16]: induced a significant response; excitatory effect in MSNs (number of spikes per depolarization pulse) ([17]; 30 μM): very weak efficacy in inducing excitatory effects
2 | C[N+](C)(C)CCOC(N)=O [CCh, carbachol, reference compound] | robust increase in sEPSC frequency |  |  |  |  |  |  |  |  |  |  |  |  |  | without effect |  |  |  |  |  | concentration required for induction of the PFC response [1]: > 50 µM; induction of LTD of fEPSP slope ([11]; 50 μM): induced robust LTD; excitatory effect in MSNs (number of spikes per depolarization pulse) ([17]; 10 μM): robust excitatory effect
3 | CCOC(=O)N1CCC(N2CCC[C@@H](NC(=O)c3ccccc3C)C2)CC1 [VU0364572] | no significant effect on IEI | 44.2 | 39.9 | 68.1 | 78.1 | 86.2 | 146 | 2.3 | 1 | 0.5 | little or no effect on β-arrestin recruitment | fails to reverse this response | 70.8 % CCh max | 0.89 | induced robust LTD | 90.5 | 10 | significant potentiation of fEPSP slope | no effect on β-arrestin recruitment | did induce responses | EC50 ([2]; read-out: Ca EC50, TET 0 ng/mL): 30.5 µM; acquisition of contextual fear (freezing) ([3]; 0.056, 0.3, and 0.56 mg/kg i.p. 30 min before conditioning): improved acquisition of contextual fear learning; swim distance, day 5 ([10]; 0.1 mg/kg and 10 mg/kg i.p. 30 min prior to first trial, vs vehicle): decreased swim distance; overnight memory retention day 4 to day 5 ([10]; 0.1 mg/kg i.p., vs vehicle): enhanced overnight memory retention; platform crossings during first 30 seconds of probe trial ([10]; 0.1 mg/kg i.p., vs vehicle): increased platform crossings; swim distance, day 4 ([10]; 0.1 mg/kg i.p., vs vehicle): enhancement; concentration required to induce effects at D3 receptors [18]: greater than 10 μM; inhibition of binding at D3 receptors [18]: 10%; ERK % CCh max ([15]; TET 0 ng/mL): 56.4 % CCh max; ERK % CCh max ([15]; TET 25 ng/mL): 50.6 % CCh max; ERK % CCh max ([15]; TET 50 ng/mL): 52.6 % CCh max; ERK % CCh max ([15]; TET 1 μg/mL): 49.3 % CCh max; EC50 ([15]; read-out: ERK EC50, TET 0 ng/mL): 108 µM; EC50 ([15]; read-out: ERK EC50, TET 25 ng/mL): 9.88 µM; EC50 [15, 23]: 9.44 µM; EC50 [15, 24]: 3.3 µM; excitatory effect in MSNs (number of spikes per depolarization pulse) ([17]; 30 μM): relatively weak excitatory effect
